Tests used:
[1] = system: common waterhemp, Non-Target Site Resistant "ACR" Population; assay: Greenhouse dose-response, effective dose on atrazine-resistant waterhemp; format: in vivo, Amaranthus tuberculatus; conditions: 13 days after treatment, visual scale 0-100
[2] = system: common waterhemp, Non-Target Site Resistant "MCR" Population; assay: as above; format: in vivo, Amaranthus tuberculatus; conditions: 13 days after treatment, visual scale 0-100

CCNc1nc(Cl)nc(NC(C)C)n1 [Atrazine (480 g/L FL), Atrazine]
ED 20 Estimate [1]: 6.782 g ai/ha
ED 80 Estimate [1]: 768.664 g ai/ha
ED 20 Estimate [2]: 20.856 g ai/ha
ED 80 Estimate [2]: 793.705 g ai/ha

Source: patent publication US20250248402A1, “HERBICIDAL COMPOSITIONS AND METHODS FOR CONTROLLING WEEDS” (UPL Mauritius Limited, priority 2024, published 2025)
